Measured values taken from patent publication US9580390B2, “Indazole compounds as kinase inhibitors and method of treating cancer with same” (University Health Network, priority 2011, dated 2017).
Like-named read-outs stand apart in the source and are kept apart here.

Legend:
[1] = test system: colon cancer cells (HCT116); test: Cancer cell line growth inhibition (SRB assay); assay type: cell-based; settings: read-out: Cancer Cell Line GI50 Range HCT116
[2] = test system: ovarian cancer cells (PA-1); test: Cancer cell line growth inhibition (SRB assay); assay type: cell-based; settings: PA-1, read-out: Cancer Cell Line GI50 Range PA-1
human TTK = molecular target: T1, human TTK (Homo sapiens, UniProt P33981); test: TTK inhibition assay (indirect ELISA); assay type: biochemical; settings: read-out: TTK IC50 Range
T1 construct: amino terminal GST fusion of full length human TTK; purchased Invitrogen
T1 sequence (P33981 1-857): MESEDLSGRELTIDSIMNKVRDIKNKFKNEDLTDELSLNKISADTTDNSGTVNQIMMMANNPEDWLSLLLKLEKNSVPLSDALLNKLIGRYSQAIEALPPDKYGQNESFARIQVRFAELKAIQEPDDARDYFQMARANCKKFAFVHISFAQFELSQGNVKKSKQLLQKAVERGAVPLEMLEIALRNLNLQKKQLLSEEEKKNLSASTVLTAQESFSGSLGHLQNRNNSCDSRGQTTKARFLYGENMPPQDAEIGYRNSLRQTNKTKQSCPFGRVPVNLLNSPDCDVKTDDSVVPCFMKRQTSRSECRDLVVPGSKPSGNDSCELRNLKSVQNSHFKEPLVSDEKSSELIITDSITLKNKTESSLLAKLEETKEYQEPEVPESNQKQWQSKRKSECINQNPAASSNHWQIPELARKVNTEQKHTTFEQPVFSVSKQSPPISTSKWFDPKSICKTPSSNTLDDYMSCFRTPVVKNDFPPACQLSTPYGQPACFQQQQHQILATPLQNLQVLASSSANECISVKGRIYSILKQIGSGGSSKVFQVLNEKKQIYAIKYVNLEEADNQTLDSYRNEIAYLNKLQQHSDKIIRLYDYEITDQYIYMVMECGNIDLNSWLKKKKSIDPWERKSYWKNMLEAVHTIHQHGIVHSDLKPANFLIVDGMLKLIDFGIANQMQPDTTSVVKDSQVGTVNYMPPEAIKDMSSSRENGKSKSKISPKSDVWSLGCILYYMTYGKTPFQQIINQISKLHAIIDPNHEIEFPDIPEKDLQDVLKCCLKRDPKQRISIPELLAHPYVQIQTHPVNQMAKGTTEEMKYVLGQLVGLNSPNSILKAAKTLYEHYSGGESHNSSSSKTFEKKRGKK

Breast cancer cells = test: Cancer cell line growth inhibition (SRB assay); assay type: cell-based; settings: Homo sapiens; MDA-MB-468; read-out: Cancer Cell Line GI50 Range MDA-MB-468

| SMILES | GI50 ([1]; Homo sapiens, HCT-116) [µM] | GI50 ([2]; Homo sapiens) [µM] | IC50 (human TTK) [µM] | GI50 (Breast cancer cells) [µM] | GI50 ([1]; HCT116) [µM] | GI50 [2] [µM] |
| --- | --- | --- | --- | --- | --- | --- |
| CS(=O)(=O)c1cc(-c2n[nH]c3ccc(C(=O)NC(c4ccccn4)C4CC4)cc23)ccc1OC1CCNCC1 (stereo not shown) [Example A243, N-(cyclopropyl(pyridin-2-yl)methyl)-3-(3-(methylsulfonyl)-4-(piperidin-4-yloxy)phenyl)-1H-indazole-5-carboxamide] | > 0.5 | > 0.5 | < 0.1 | > 0.5 | – | – |
| CN1CCC(CO)(Cc2ccc(-c3n[nH]c4ccc(C(=O)NCC5(N6CCOCC6)CCCCC5)cc34)cc2)CC1 [Example A486, 3-(4-((4-(hydroxylmethyl)-1-methylpiperidin-4-yl)methyl)phenyl)-N-((1-morpholinocyclohexyl)methyl)-1H-indazole-5-carboxamide] | 0.1 to 0.5 | 0.1 to 0.5 | < 0.1 | > 0.5 | – | – |
| O=C(N[C@@H](c1ccsc1)C1CC1)c1ccc2[nH]nc(-c3ccc(OC4CCN(C[C@@H](O)C(F)(F)F)CC4)cc3)c2c1 [Example A224, N-((R)-cyclopropyl(thiophen-3-yl)methyl)-3-(4-((1-((R)-3,3,3-trifluoro-2-hydroxypropyl)piperidin-4-yl)oxy)phenyl)-1H-indazole-5-carboxamide] | 0.1 to 0.5 | 0.1 to 0.5 | < 0.1 | > 0.5 | – | – |
| O=CN1[C@@H]2CC[C@H]1C[C@@H](Oc1ccc(-c3n[nH]c4ccc(C(=O)NC(c5ccccc5)C5CCC5)cc34)cc1)C2 (stereo partly drawn) [Example A346, N-(cyclobutyl(phenyl)methyl)-3-(4-(((1R,3R,5S)-8-formyl-8-azabicyclo[3.2.1]octan-3-yl)oxy)phenyl)-1H-indazole-5-carboxamide] | 0.1 to 0.5 | 0.1 to 0.5 | < 0.1 | 0.1 to 0.5 | – | – |
| O=C(NCC1(N2CCOCC2)CCOCC1)c1ccc2[nH]nc(-c3ccc(N4[C@@H]5CC[C@H]4C[C@@H](O)C5)cc3)c2c1 [Example A493, 3-(4-((1R,3R,5S)-3-hydroxy-8-azabicyclo[3.2.1]octan-8-yl)phenyl)-N-((4-morpholinotetrahydro-2H-pyran-4-yl)methyl)-1H-indazoIe-5-carboxamide] | 0.1 to 0.5 | 0.1 to 0.5 | < 0.1 | > 0.5 | – | – |
| CN1[C@@H]2CC[C@H]1C[C@@H](Oc1ccc(-c3n[nH]c4ccc(C(=O)NC(c5ccccc5)C(F)F)cc34)cc1)C2 (stereo partly drawn) [Example A227, N-(2,2-difIuoro-1-phenylethyl)-3-(4-(((1R,3R,5S)-8-methyl-8-azabicyclo[3.2.1]octan-3-yl)oxy)phenyl)-1H-indazole-5-carboxamide] | < 0.1 | 0.1 to 0.5 | < 0.1 | > 0.5 | – | – |
| CN1CCN(C2(CNC(=O)c3ccc4[nH]nc(-c5ccc(N6CCOCC6)cc5)c4c3)CCCC2)CC1 [Example A467, N-((1-(4-methylpiperazin-1-yl)cyclopentyl)methyl)-3-(4-morpholinophenyl)-1H-indazole-5-carboxamide] | > 0.5 | > 0.5 | 0.1 to 0.5 | > 0.5 | – | – |
| O=C(NCC1(CN2CCOCC2)CCCCC1)c1ccc2[nH]nc(-c3ccc(N4CCOCC4)cc3)c2c1 [Example A509, N-((1-(morpholinomethyl)cyclohexyl)methyl)-3-(4-morpholinophenyl)-1H-indazole-5-carboxamide] | > 0.5 | > 0.5 | < 0.1 | > 0.5 | – | – |
| CC(C)[C@@H](NC(=O)c1ccc2[nH]nc(-c3ccc(N4CC(N5CCOCC5)C4)cc3)c2c1)c1ccccc1Cl [Example A317, (R)-N-(1-(2-chlorophenyl)-2-methylpropyl)-3-(4-(3-morpholinoazetidin-1-yl)phenyl)-1H-indazole-5-carboxamide] | 0.1 to 0.5 | < 0.1 | < 0.1 | 0.1 to 0.5 | – | – |
| CN1[C@@H]2CC[C@H]1C[C@@H](Oc1ccc(-c3n[nH]c4ccc(C(=O)NC(c5ccccc5Cl)C5CCCC5)cc34)cc1)C2 (stereo partly drawn) [Example A284, N-((2-chlorophenyl)(cyclopentyl)methyl)-3-(4-(((1R,3R,5S)-8-methyl-8-azabicyclo[3.2.1]octan-3-yl)oxy)phenyl)-1H-indazole-5-carboxamide] | 0.1 to 0.5 | 0.1 to 0.5 | < 0.1 | 0.1 to 0.5 | – | – |
| CN1C2CCC1CC(Oc1ccc(-c3n[nH]c4ccc(C(=O)N[C@@H](c5ccccn5)C5CC5)cc34)cc1)C2 (stereo partly drawn) [Example A380, N-((R)-cyclopropyl(pyridin-2-yl)methyl)-3-(4-(((1R,3R,5S)-8-methyl-8-azabicyclo[3.2.1]octan-3-yl)oxy)phenyl)-1H-indazole-5-carboxamide] | < 0.1 | < 0.1 | < 0.1 | 0.1 to 0.5 | – | – |
| C[C@@H](O)CN1CCC(Oc2ccc(-c3n[nH]c4ccc(C(=O)NCC5(OC6CCCC6)CCCCC5)cc34)cc2)CC1 [Example A444, (R)-N-((1-(cyclopentyloxy)cyclohexyl)methyl)-3-(4-((1-(2-hydroxypropyl)piperidin-4-yl)oxy)phenyl)-1H-indazole-5-carboxamide] | > 0.5 | > 0.5 | < 0.1 | > 0.5 | – | – |
| CC(C)C[C@H](NC(=O)c1ccc2[nH]nc(-c3ccc(N4C5CCC4COC5)cc3)c2c1)c1ccccc1Cl [Example A413, 3-(4-((1R,5S)-3-oxa-8-azabicyclo[3.2.1]octan-8-yl)phenyl)-N-((S)-(2-chlorophenyl)-3-methylbulyl)-1H-indazole-5-carboxamide] | < 0.1 | < 0.1 | < 0.1 | 0.1 to 0.5 | – | – |
| Cc1cc(=O)n(C)c2ccc(-c3n[nH]c4ccc(C(=O)N[C@H](c5ccccn5)C5CC5)cc34)cc12 [Example A238] | 0.1 to 0.5 | 0.1 to 0.5 | < 0.1 | > 0.5 | – | – |
| CN1[C@@H]2CC[C@H]1C[C@@H](Oc1ccc(-c3n[nH]c4ccc(C(=O)NCC5(c6ccccn6)CC5)cc34)cc1)C2 [Example A488] | > 0.5 | > 0.5 | < 0.1 | > 0.5 | – | – |
| O=C(N[C@@H](c1ccccn1)C1CC1)c1ccc2[nH]nc(-c3ccc(N4C5CCC4CC(O)C5)cc3)c2c1 (stereo partly shown) [Example A512] | – | – | < 0.1 | 0.1 to 0.5 | < 0.1 | < 0.1 |
| O=C(NCC1(N2CCOCC2)CCCOC1)c1ccc2[nH]nc(-c3ccc(N4C5CCC4CC(O)C5)cc3)c2c1 [Example A495, 3-(4-((1R,3R.5S)-3-hydroxy-8-azabicyclo[3.2.1]octan-8-yl)phenyl)-N-((3-morpholinotetrahydro-2H-pyran-3-yl)methyl)-1H-indazole-5-carboxamide] | 0.1 to 0.5 | < 0.1 | < 0.1 | 0.1 to 0.5 | – | – |
| CCC(CC)C(NC(=O)c1ccc2[nH]nc(-c3ccc(O[C@H]4C[C@H]5CC[C@@H](C4)N5C4COC4)cc3)c2c1)c1ccccn1 (stereo partly drawn) [Example A341, N-(2-ethyl-1-(pyridin-2-yl)butyl)-3-(4-(((1R,3R,5S)-8-(oxetan-3-yl)-8-azabicyclo[3.2.1]octan-3-yl)oxy)phenyl)-1H-indazole-5-carboxamide] | 0.1 to 0.5 | 0.1 to 0.5 | < 0.1 | 0.1 to 0.5 | – | – |
| CC(C)[C@H](NC(=O)c1ccc2[nH]nc(-c3ccc(OC4CC5CCC(C4)N5C=O)nc3)c2c1)c1ccccc1Cl (stereo partly drawn) [Example A354, N-((S)-1-(2-chlorophenyl)-2-methylpropyl)-3-(6-(((1R,3R,5S)-8-formyl-8-azabicyclo[3.2.1]octan-3-yl)oxy)pyridin-3-yl)-1H-indazole-5-carboxamide] | 0.1 to 0.5 | 0.1 to 0.5 | < 0.1 | 0.1 to 0.5 | – | – |
| O=C(N[C@H](c1ccccn1)C1CC1)c1ccc2[nH]nc(-c3ccc4c(c3)C(=O)CCO4)c2c1 [Example A241] | > 0.5 | > 0.5 | < 0.1 | > 0.5 | – | – |
| CN1[C@@H]2CC[C@H]1C[C@@H](Oc1ccc(-c3n[nH]c4ccc(C(=O)NCC5(OC6CCCC6)CCCCC5)cc34)cc1)C2 [Example A438] | 0.1 to 0.5 | 0.1 to 0.5 | < 0.1 | > 0.5 | – | – |
| CCC(CC)(CNC(=O)c1ccc2[nH]nc(-c3ccc(OC4CCN(C5COC5)CC4)cc3)c2c1)c1ccccc1 [Example A439, N-(2-ethyl-2-phenylbutyl)-3-(4-((1-(oxetan-3-yl)piperidin-4-yl)oxy)phenyl)-1H-indazole-5-carboxamide] | 0.1 to 0.5 | 0.1 to 0.5 | < 0.1 | 0.1 to 0.5 | – | – |
